{"source": "patent US7087616B2", "about": "“Pyrazolyl pyrimidines” (Bayer CropScience AG, priority 2001, dated 2006)", "key": {"[1]": {"system": "Meloidogyne incognita", "assay": "Meloidogyne Test", "format": "in vivo", "settings": "20 ppm, nematicidal action by gall formation on lettuce", "procedure": "(§1) To produce a suitable preparation of active compound, 1 part by weight of active compound is mixed with the stated amounts of solvent and emulsifier, and the concentrate is diluted with water to the desired concentration.\nContainers are filled with sand, solution of active compound, Meloidogyne incognita egg/larvae suspension and lettuce seeds. The lettuce seeds germinate and the plants develop. On the roots, galls are formed.\nAfter the desired period of time, the nematicidal action is determined in % by the gall formation. 100% means that no galls were found; 0% means that the number of galls on the treated plants corresponds to that of the untreated control.\nThe amount of solvent, amount of emulsifier, active compounds, active compound concentrations and test results are shown in the Tables below."}, "[2]": {"system": "cotton aphid (Aphis gossypii)", "assay": "Aphis gossypii Test", "format": "in vivo", "settings": "144 h, read-out: Kill rate in % after 6d", "procedure": "(§2) To produce a suitable preparation of active compound, 1 part by weight of active compound is mixed with the stated amounts of solvent and emulsifier, and the concentrate is diluted with emulsifier-containing water to the desired concentration.\nCotton leaves (Gossypium hirsutum) which are heavily infested by the cotton aphid (Aphis gossypii) are treated by being dipped into the preparation of active compound of the desired concentration.\n(§3) After the desired period of time, the kill in % is determined. 100% means that all aphids have been killed; 0% means that none of the aphids have been killed."}, "[3]": {"system": "larvae of the mustard beetle (Phaedon cochlearae)", "assay": "Phaedon Larvae Test", "format": "in vivo", "settings": "500 ppm; cabbage leaves dipped", "procedure": "[table] To produce a suitable preparation of active compound, 1 part by weight of active compound is mixed with the stated amounts of solvent and emulsifier, and the concentrate is diluted with emulsifier-containing water to the desired concentration. Cabbage leaves (Brassica oleracea) are treated by being dipped into the preparation of active compound of the desired concentration and are populated with larvae of the mustard beetle (Phaedon cochlearae) while the leaves are still moist."}, "[4]": {"settings": "Aust. J. Chem. 1980, 33, 2291–2298; cited from earlier work"}, "[5]": {"system": "peach aphids (Myzus persicae)", "assay": "Myzus Test/Cabbage", "format": "in vivo", "settings": "144 h, read-out: Kill rate in % after 6d", "procedure": "as §2\nCabbage leaves (Brassica oleracea) which are heavily infested by peach aphids (Myzus persicae) are treated by being dipped into the preparation of active compound of the desired concentration.\nas §3\nAmounts of solvent, amounts of emulsifier, active compounds, active compound concentrations and test results are shown in the Tables below."}, "[6]": {"system": "green peach aphids (Myzus persicae)", "assay": "Myzus Test/Broad Beans", "format": "in vivo", "settings": "broad bean seedlings dipped", "procedure": "To produce a suitable preparation of active compound, 1 part by weight of active compound is mixed with the stated amount of solvent and the stated amount of emulsifier, and the concentrate is diluted with emulsifier-containing water to the desired concentrations.\nBroad bean (Vicia faba minor) seedlings which are infested by green peach aphids (Myzus persicae) are dipped into a preparation of active compound of the desired concentration and placed into a plastic box.\nAfter the desired period of time, the kill in % is determined. 100% means that all animals have been killed; 0% means that none of the animals have been killed."}, "[7]": {"system": "Aphis gossypii", "assay": "Critical Concentration/Root-systemic Action", "format": "in vivo", "settings": "20 ppm (mg/l soil); root-systemic action, cucumber plants", "procedure": "as §1\nThe preparation of active compound is intimately mixed with soil. The concentration of the active compound in the preparation is of practically no importance here, only the amount by weight of active compound per unit volume of soil, which is given in ppm (=mg/l), being decisive. The treated soil is transferred into pots and these are planted with cucumber plants at the cotyledon stage. In this way, the active compound can be taken up from the plant and be transported into the leaves.\nAfter a further 7 days, evaluation is carried out by counting or estimating the dead animals. The root-systemic action of the active compound is deduced from the mortality figures. It is 100% if all test animals have been killed and 0% if just as many test insects are still alive as in the case of the untreated controls."}, "[8]": {"settings": "Table A 2, emulsifier 2 parts by weight"}}, "note": "Read-outs that look alike come from different tables or passages of the source."}
{"smiles": "O=C(O)CSc1nccc(-n2cc(-c3ccc(Cl)cc3)cn2)n1", "values": [{"measurement": "Kill rate in % after 14d", "setting": "[1]; [8]", "result": 80, "unit": "%"}]}
{"smiles": "CCOC(=O)CSc1nccc(-n2ccc(C(C)=O)n2)n1", "values": [{"measurement": "Kill rate in % after 14d", "setting": "[1]; [8]", "result": 80, "unit": "%"}]}
{"smiles": "CCOC(=O)CSc1nccc(-n2cc(OC)cn2)n1", "values": [{"measurement": "pest or weed control at 500 ppm", "setting": "[2]; 500 ppm, cotton leaves dipped", "result": 95, "unit": "%"}]}
{"smiles": "O=C(CSc1nccc(-n2cc(Cl)cn2)n1)OCC(F)(F)C(F)(F)C(F)(F)F", "values": [{"measurement": "pest or weed control at 500 ppm", "setting": "[2]", "result": 99, "unit": "%"}]}
{"smiles": "O=C(O)CSc1nccc(-n2cc(-c3ccccc3)cn2)n1", "values": [{"measurement": "Kill rate in % after 7d", "setting": "[3]", "result": 100, "unit": "%"}]}
{"smiles": "Cc1cc(C)n(-c2ccnc(SCC(N)=O)n2)n1", "note": "[2-{[4-(3,5-dimethyl-1H-pyrazol-1-yl)-2-pyrimidinyl]thio}acetamide]", "values": [{"measurement": "enhancing effect on phleomycin", "setting": "[4]", "result": "no enhancing effect"}]}
{"smiles": "COC(=O)CSc1nccc(-n2cc(C)cn2)n1", "note": "[drawing 167]", "values": [{"measurement": "Kill rate in % after 14d", "setting": "[1]; Table A 1, emulsifier 1 part by weight", "result": 90, "unit": "%"}]}
{"smiles": "CCOC(=O)CSc1nccc(-n2cc(Cl)cn2)n1", "note": "[drawing 169]", "values": [{"measurement": "Kill rate in % after 14d", "setting": "[1]; [8]", "result": 100, "unit": "%"}]}
{"smiles": "C#Cc1cnn(-c2ccnc(SCC(=O)OCC)n2)c1", "note": "[drawing 171]", "values": [{"measurement": "Kill rate in % after 14d", "setting": "[1]; [8]", "result": 90, "unit": "%"}]}
{"smiles": "O=C(O)CSc1nccc(-n2cc(Cl)cn2)n1", "note": "[drawing 172]", "values": [{"measurement": "Kill rate in % after 14d", "setting": "[1]; [8]", "result": 85, "unit": "%"}]}
{"smiles": "C=Cc1cnn(-c2ccnc(SCC(=O)OCC)n2)c1", "note": "[drawing 173]", "values": [{"measurement": "Kill rate in % after 14d", "setting": "[1]; [8]", "result": 80, "unit": "%"}]}
{"smiles": "COc1cnn(-c2ccnc(SCC(=O)OC(C)C(F)(F)C(F)(F)C(F)(F)F)n2)c1", "note": "(stereo not drawn) [drawing 192]", "values": [{"measurement": "pest or weed control at 500 ppm", "setting": "[5]", "result": 100, "unit": "%"}]}
{"smiles": "CC(OC(=O)CSc1nccc(-n2cc(Br)cn2)n1)C(F)(F)C(F)(F)C(F)(F)F", "note": "(stereo not drawn) [drawing 193]", "values": [{"measurement": "pest or weed control at 500 ppm", "setting": "[5]", "result": 100, "unit": "%"}]}
{"smiles": "COC(=O)CSc1nccc(-n2cc(C)cn2)n1", "note": "[drawing 194]", "values": [{"measurement": "Kill rate in % after 6d", "setting": "[6]; 500 ppm", "result": 100, "unit": "%"}]}
{"smiles": "COC(=O)CSc1nccc(-n2cc(Br)cn2)n1", "note": "[drawing 195]", "values": [{"measurement": "Kill rate in % after 6d", "setting": "[6]; 100 ppm", "result": 100, "unit": "%"}]}
{"smiles": "CCOC(=O)CSc1nccc(-n2cc(C)cn2)n1", "note": "[drawing 196]", "values": [{"measurement": "Kill rate in % after 6d", "setting": "[6]; 500 ppm", "result": 99, "unit": "%"}]}
{"smiles": "CCOC(=O)CSc1nccc(-n2cccn2)n1", "note": "[drawing 197]", "values": [{"measurement": "Kill rate in % 7d after infection", "setting": "[7]", "result": 90, "unit": "%"}]}
{"smiles": "CCOC(=O)CN(C)c1nccc(-n2cccn2)n1", "note": "[drawing 198]", "values": [{"measurement": "pest or weed control at 500 ppm", "setting": "[2]; 500 ppm, cotton leaves dipped", "result": 99, "unit": "%"}]}
{"smiles": "CCOC(=O)CSc1nccc(-n2cc(C(F)(F)F)cn2)n1", "note": "[drawing 201]", "values": [{"measurement": "pest or weed control at 500 ppm", "setting": "[2]; 500 ppm, cotton leaves dipped", "result": 95, "unit": "%"}]}
{"smiles": "CN(CC(=O)OCC(F)(F)C(F)(F)C(F)(F)F)c1nccc(-n2cc(Cl)cn2)n1", "note": "[drawing 202]", "values": [{"measurement": "pest or weed control at 500 ppm", "setting": "[2]", "result": 95, "unit": "%"}]}
{"smiles": "CC(OC(=O)CSc1nccc(-n2cc(Cl)cn2)n1)C(F)(F)C(F)(F)C(F)(F)F", "note": "(stereo not drawn) [drawing 204]", "values": [{"measurement": "pest or weed control at 500 ppm", "setting": "[2]", "result": 90, "unit": "%"}]}
{"smiles": "COc1cnn(-c2ccnc(SCC(=O)OCC(F)(F)F)n2)c1", "note": "[drawing 205]", "values": [{"measurement": "pest or weed control at 500 ppm", "setting": "[2]; 500 ppm, cotton leaves dipped", "result": 100, "unit": "%"}]}
{"smiles": "CCOC(=O)CSc1nccc(-n2cc(SC(F)(F)C(F)F)cn2)n1", "note": "[drawing 206]", "values": [{"measurement": "pest or weed control at 500 ppm", "setting": "[2]; 500 ppm, cotton leaves dipped", "result": 90, "unit": "%"}]}
{"smiles": "CCOC(=O)CSc1nccc(-n2cc(-c3ccccc3)cn2)n1", "note": "[drawing 207]", "values": [{"measurement": "Kill rate in % after 7d", "setting": "[3]", "result": 100, "unit": "%"}]}
